# Test results reported in ChEMBL document CHEMBL1158799, “The transgenic Arabidopsis plant system, pER8-GFP, as a powerful tool in searching for natural product estrogen-agonists/antagonists” (J Nat Prod, 2005).
# The source made the active and inactive calls. The calls are words filed in the database; no cut-off is given here.
# Assays:
# [1] = biological target: T1, Estrogen receptor (Homo sapiens) (UniProt P03372); assay: Activity at human estrogen receptor expressed in transgenic Arabidopsis plant at >100 ug/mL by pER8-GFP reporter assay
# T1 sequence (whole entry): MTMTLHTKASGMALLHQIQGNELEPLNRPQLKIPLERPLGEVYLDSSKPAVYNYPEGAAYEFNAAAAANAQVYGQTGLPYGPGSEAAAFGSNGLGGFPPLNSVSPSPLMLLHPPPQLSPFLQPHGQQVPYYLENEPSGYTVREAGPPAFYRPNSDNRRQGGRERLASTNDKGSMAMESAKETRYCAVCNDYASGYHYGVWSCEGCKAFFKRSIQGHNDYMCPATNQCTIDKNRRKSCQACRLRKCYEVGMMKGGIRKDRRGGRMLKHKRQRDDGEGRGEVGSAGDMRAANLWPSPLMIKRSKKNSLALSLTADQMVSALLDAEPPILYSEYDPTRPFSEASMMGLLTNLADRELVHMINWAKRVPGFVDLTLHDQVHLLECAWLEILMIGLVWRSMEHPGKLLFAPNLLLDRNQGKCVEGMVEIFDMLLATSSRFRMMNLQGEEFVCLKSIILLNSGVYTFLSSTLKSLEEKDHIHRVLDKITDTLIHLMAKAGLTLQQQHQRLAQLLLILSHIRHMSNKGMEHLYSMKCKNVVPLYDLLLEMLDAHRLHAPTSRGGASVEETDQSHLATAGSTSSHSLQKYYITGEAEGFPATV
# [2] = biological target: T1, Estrogen receptor (Homo sapiens); assay: Activity at human estrogen receptor expressed in transgenic Arabidopsis plant at >10 uM by pER8-GFP reporter assay
# [3] = biological target: T1, Estrogen receptor (Homo sapiens); assay: Activity at human estrogen receptor expressed in transgenic Arabidopsis plant at >100 uM by pER8-GFP reporter assay
structure (smiles),measurement,setting,value
O=c1c(-c2ccc(O)cc2)coc2c([C@@H]3O[C@H](CO)[C@@H](O)[C@H](O)[C@H]3O)c(O)ccc12,Activity,[1],Active
C[C@]12CC[C@H]3[C@@H](CCC4=CC(=O)CC[C@@]43C)[C@@H]1CC[C@@H]2O,Activity,[2],Active
O=C1C=CC(O)(c2cc(=O)c3c(O)cc(O)cc3o2)C=C1,Activity,[3],Active
